Reference: ChEMBL document CHEMBL1201862, “PubChem BioAssay data set” (2004)
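96-well plates; 48 h exposure; 5 concentrations. Endpoints by linear interpolation between flanking doses. Not reached: highest tested concentration assigned. GI50: concentration for 50% inhibition of growth.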 Calls of active or inactive are those of the source. Cut-off read from the data, not from the text of the source: active = GI50 up to about 1.1 µM and inactive = higher.

Experiments:
Assay in all cases: inhibition of tumour cell growth, NCI panel, 48 h
[1] = system: NCI-H460
[2] = system: OVCAR-4
[3] = system: NCI-H226
[4] = system: RXF 393
[5] = system: COLO 205
[6] = system: SNB-19
[7] = system: CAKI-1
[8] = system: OVCAR-3
[9] = system: U-251
[10] = system: HT-29
[11] = system: NCI-H522
[12] = system: UACC-62
[13] = system: IGROV-1
[14] = system: UO-31
[15] = system: LOX IMVI
[16] = system: MDA-MB-435
[17] = system: DU-145
[18] = system: MDA-MB-231

Measured: GI50

COc1ccc(NC(=O)CC(=O)N2N=C(N(CCC#N)c3ccccc3Cl)CC2c2ccccc2)cc1 (centres undefined)
inactive: [1] > 100 µM | [2] > 100 µM | [3] > 100 µM | [4] > 100 µM | [5] > 100 µM | [6] > 100 µM | [7] > 100 µM | [8] > 100 µM | [9] > 100 µM | [10] > 100 µM | [11] > 100 µM | [12] > 100 µM | [13] > 100 µM | [14] > 100 µM | [15] > 100 µM

O=C(O)C1=Cc2cccc3cccc(c23)C1=O
inactive: [1] > 100 µM | [2] > 100 µM | [3] > 100 µM | [4] > 100 µM | [5] > 100 µM | [6] > 100 µM | [7] > 100 µM | [8] > 100 µM | [9] > 100 µM | [10] > 100 µM | [11] > 100 µM | [12] > 100 µM | [13] > 100 µM | [14] 81.8 µM | [15] > 100 µM

Cc1cc(=O)n(-c2ccccc2C)c(C)n1
inactive: [1] > 100 µM | [2] > 100 µM | [3] > 100 µM | [4] > 100 µM | [5] > 100 µM | [6] > 100 µM | [7] > 100 µM | [8] > 100 µM | [9] > 100 µM | [10] > 100 µM | [11] > 100 µM | [12] > 100 µM | [13] > 100 µM | [14] > 100 µM | [15] > 100 µM

O=C1C(Cl)=C(NCCOCCO)C(=O)c2c(O)ccc(O)c21
inactive: [1] 3.36 µM | [2] 2.37 µM | [3] 18.3 µM | [4] 14.1 µM | [5] 2.17 µM | [7] 23.9 µM | [9] 17 µM | [10] 3.08 µM | [11] 1.98 µM | [12] 3.24 µM | [13] 5.6 µM | [14] 16 µM | [15] 3.61 µM

ClC(Cl)=C(Cl)C1(Cl)CC1COCc1ccccc1 (centres undefined)
inactive: [1] 38.5 µM | [2] 17.6 µM | [3] 22.4 µM | [4] 18.1 µM | [5] 25.2 µM | [6] 36.9 µM | [7] 65.8 µM | [8] 22.6 µM | [10] 24.8 µM | [11] 16.5 µM | [12] 22.5 µM | [13] 47.6 µM | [14] 25.8 µM | [15] 23.1 µM

O=C(N/C(=C\c1cc(Cl)ccc1Cl)c1nc2cc(Cl)ccc2[nH]1)c1ccccc1
inactive: [1] 15.1 µM | [2] 25.8 µM | [3] 17.3 µM | [4] 15.4 µM | [5] 18.8 µM | [6] 22.4 µM | [7] 22 µM | [8] 15.2 µM | [9] 16.1 µM | [10] 16.4 µM | [11] 12.4 µM | [12] 11.4 µM | [13] 13.1 µM | [14] 11.7 µM | [15] 13.6 µM

CC(C)=CCC/C(C)=C/CC/C(C)=C/[C@@H]1[C@@H](CO)[C@]1(C)CC/C=C(\C)CCC=C(C)C
inactive: [1] 47.6 µM | [2] > 100 µM | [3] 19.4 µM | [16] 85.9 µM | [4] 23.7 µM | [17] 39.6 µM | [18] 21.6 µM | [5] 63.1 µM | [6] > 100 µM | [7] 46.3 µM | [8] 52.5 µM | [9] 53.7 µM | [10] 42.8 µM | [11] 17.1 µM | [13] 12.5 µM | [14] 18.6 µM | [15] 11.5 µM

COc1cc(C=C2C(=O)OC(C)(C)OC2=O)cc(OC)c1OC
inactive: [1] > 100 µM | [2] > 100 µM | [3] > 100 µM | [4] > 100 µM | [5] > 100 µM | [6] > 100 µM | [7] > 100 µM | [8] > 100 µM | [9] > 100 µM | [10] > 100 µM | [11] > 100 µM | [12] > 100 µM | [14] > 100 µM | [15] > 100 µM

COC(=O)C(Cl)=C1CC1
inactive: [1] > 100 µM | [2] 34.8 µM | [3] > 100 µM | [4] 19.1 µM | [5] 19.9 µM | [6] > 100 µM | [7] 17.9 µM | [8] 26.7 µM | [10] 34.2 µM | [11] 17.6 µM | [12] 59 µM | [13] > 100 µM | [14] 31.4 µM | [15] 16.7 µM

Cc1ccc(Cl)c2c(=O)cc(-c3ccccc3)[nH]c12
inactive: [1] 36.2 µM | [2] 55.3 µM | [3] 48.3 µM | [4] 29.2 µM | [5] > 100 µM | [7] 84.9 µM | [9] 88.5 µM | [10] 50.4 µM | [11] 63.7 µM | [12] 42.5 µM | [13] 85.3 µM | [14] 37.9 µM | [15] 39.7 µM

CC1C(c2ccccc2)N(C)C(c2ccccc2)C(C)C1(O)c1ccccc1 (centres undefined)
inactive: [1] 34.4 µM | [2] > 100 µM | [3] 44.2 µM | [4] > 100 µM | [5] 20 µM | [6] > 100 µM | [7] > 100 µM | [8] 51.4 µM | [9] > 100 µM | [10] 55.8 µM | [11] > 100 µM | [12] > 100 µM | [13] > 100 µM | [14] > 100 µM | [15] 37.2 µM

O=C(c1nc2ccc(Cl)cc2[nH]c1=O)C(O)c1cccc([N+](=O)[O-])c1 (centres undefined)
inactive: [1] > 100 µM | [2] > 100 µM | [3] > 100 µM | [4] > 100 µM | [5] > 100 µM | [6] > 100 µM | [7] > 100 µM | [8] > 100 µM | [9] > 100 µM | [10] 16.3 µM | [11] 16.2 µM | [12] 67.6 µM | [13] > 100 µM | [14] 80.9 µM | [15] 18.5 µM

CC1=C(C(=O)Nc2ccccc2C)C(c2ccco2)C(C(=O)Nc2ccccc2C)=C(C)N1C
inactive: [1] > 100 µM | [2] > 100 µM | [3] > 100 µM | [4] > 100 µM | [6] > 100 µM | [7] > 100 µM | [8] > 100 µM | [9] > 100 µM | [10] > 100 µM | [11] > 100 µM | [12] > 100 µM | [13] > 100 µM | [14] > 100 µM | [15] > 100 µM
